{"source": "ChEMBL document CHEMBL1201862", "about": "“PubChem BioAssay data set” (2004)", "experiment_in_all_cases": "NCI tumour cell line growth inhibition, 48 h", "key": {"DLD-1": {"system": "DLD-1"}, "LXFL 529": {"system": "LXFL 529"}, "RXF 631": {"system": "RXF 631"}, "SR": {"system": "SR"}, "BT-549": {"system": "BT-549"}, "MDA-MB-231": {"system": "MDA-MB-231"}, "MDA-MB-435": {"system": "MDA-MB-435"}, "MDA-N": {"system": "MDA-N"}, "786-0": {"system": "786-0"}}, "note": "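Cells were grown in 96-well plates and exposed to each compound for 48 hours at five concentrations; endpoints were interpolated linearly between bracketing concentrations, or set to the highest concentration if not reached. GI50 = concentration required for 50% inhibition of growth.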 Calls of active or inactive are those of the source. Rule as the data show it: active = GI50 up to about 1.1 µM and inactive = higher."}
{"smiles": "Cc1ccc(NP(=O)(Oc2ccccc2)N(CCCl)CCCl)cc1", "note": "(centres undefined)", "values": [{"measurement": "GI50", "setting": "DLD-1", "value": "23.9 µM (inactive)"}, {"measurement": "GI50", "setting": "LXFL 529", "value": "99.3 µM (inactive)"}, {"measurement": "GI50", "setting": "RXF 631", "value": "10 µM (inactive)"}, {"measurement": "GI50", "setting": "SR", "value": "95.5 µM (inactive)"}]}
{"smiles": "CSc1nc2c(ncn2C2OCC(O)C(O)C2O)c(=O)[nH]1", "note": "(centres undefined)", "values": [{"measurement": "GI50", "setting": "DLD-1", "value": "> 100 µM (inactive)"}]}
{"smiles": "CC(=O)c1c(-c2ccco2)c(C#N)c(=S)n(C2OC(CO)C(O)C(O)C2O)c1C", "note": "(centres undefined)", "values": [{"measurement": "GI50", "setting": "BT-549", "value": "> 100 µM (inactive)"}, {"measurement": "GI50", "setting": "MDA-MB-231", "value": "> 100 µM (inactive)"}, {"measurement": "GI50", "setting": "MDA-MB-435", "value": "36.4 µM (inactive)"}, {"measurement": "GI50", "setting": "MDA-N", "value": "92.3 µM (inactive)"}, {"measurement": "GI50", "setting": "SR", "value": "97.5 µM (inactive)"}]}
{"smiles": "O=c1c2c(nc3[nH]ccn13)CCCC2", "values": [{"measurement": "GI50", "setting": "MDA-MB-231", "value": "> 10 µM (inactive)"}, {"measurement": "GI50", "setting": "MDA-MB-435", "value": "> 10 µM (inactive)"}, {"measurement": "GI50", "setting": "SR", "value": "> 10 µM (inactive)"}]}
{"smiles": "O=C(O)/C=C/c1nc2ccccc2c(=O)o1", "values": [{"measurement": "GI50", "setting": "786-0", "value": "> 100 µM (inactive)"}, {"measurement": "GI50", "setting": "DLD-1", "value": "> 100 µM (inactive)"}, {"measurement": "GI50", "setting": "LXFL 529", "value": "> 100 µM (inactive)"}]}
{"smiles": "Cc1ccc([N+](=O)[O-])cc1S(=O)(=O)Nc1ccc(C2=NNC(c3ccccc3O)C2)cc1", "note": "(centres undefined)", "values": [{"measurement": "GI50", "setting": "BT-549", "value": "19.7 µM (inactive)"}, {"measurement": "GI50", "setting": "MDA-MB-231", "value": "26.7 µM (inactive)"}, {"measurement": "GI50", "setting": "MDA-MB-435", "value": "22.1 µM (inactive)"}, {"measurement": "GI50", "setting": "MDA-N", "value": "28.6 µM (inactive)"}, {"measurement": "GI50", "setting": "SR", "value": "23.9 µM (inactive)"}]}
{"smiles": "O=C(CCl)NNC1=Nc2ccc(Cl)cc2SC1", "values": [{"measurement": "GI50", "setting": "DLD-1", "value": "1.85 µM (inactive)"}]}
{"smiles": "Cc1nc2c(c(=O)[nH]1)S/C(=C(/C#N)c1nc3ccccc3[nH]1)N2c1ccccc1", "values": [{"measurement": "GI50", "setting": "DLD-1", "value": "> 100 µM (inactive)"}, {"measurement": "GI50", "setting": "LXFL 529", "value": "> 100 µM (inactive)"}, {"measurement": "GI50", "setting": "SR", "value": "> 100 µM (inactive)"}]}
{"smiles": "CN(C(=O)c1ccccc1)c1ccc2c(c1)C(=O)c1ccccc1C2=O", "values": [{"measurement": "GI50", "setting": "LXFL 529", "value": "> 100 µM (inactive)"}, {"measurement": "GI50", "setting": "SR", "value": "> 100 µM (inactive)"}]}
{"smiles": "Cc1ccc2[nH]c3c(C)c4ccncc4c(C)c3c2c1", "values": [{"measurement": "GI50", "setting": "DLD-1", "value": "0.333 µM (active)"}, {"measurement": "GI50", "setting": "LXFL 529", "value": "1.15 µM (inactive)"}, {"measurement": "GI50", "setting": "SR", "value": "0.528 µM (active)"}]}
{"smiles": "CCCCCn1cc2c3c(cccc31)C1C=C(C)CN(C)[C@@H]1C2.Cc1ccc(C(=O)OC(C(=O)O)C(OC(=O)c2ccc(C)cc2)C(=O)O)cc1", "note": "(centres undefined)", "values": [{"measurement": "GI50", "setting": "DLD-1", "value": "6.12 µM (inactive)"}]}
{"smiles": "COc1ccc(N2C(Cl)C(=O)C2c2c[nH]c3ccccc23)cc1", "note": "(centres undefined)", "values": [{"measurement": "GI50", "setting": "LXFL 529", "value": "> 100 µM (inactive)"}, {"measurement": "GI50", "setting": "SR", "value": "> 100 µM (inactive)"}]}
{"smiles": "COC1=C2CC(C)CC(OC)C(OC(=O)CN)[C@H](C)/C=C(\\C)C(OC(N)=O)C(OC)/C=C\\C=C(/C)C(=O)NC(=CC1=O)C2=O", "note": "(some centres undefined)", "values": [{"measurement": "GI50", "setting": "786-0", "value": "0.429 µM (active)"}, {"measurement": "GI50", "setting": "BT-549", "value": "1.09 µM (active)"}, {"measurement": "GI50", "setting": "MDA-MB-231", "value": "0.42 µM (active)"}, {"measurement": "GI50", "setting": "MDA-MB-435", "value": "0.373 µM (active)"}, {"measurement": "GI50", "setting": "MDA-N", "value": "0.443 µM (active)"}, {"measurement": "GI50", "setting": "SR", "value": "0.321 µM (active)"}]}
{"smiles": "C/C=C1/C(=O)O[C@]23C=C[C@@H]4C(C(=O)OC)=CO[C@H](O[C@@H]12)[C@@H]43", "note": "[PLUMERICIN]", "values": [{"measurement": "GI50", "setting": "DLD-1", "value": "0.432 µM (active)"}]}
{"smiles": "O=C1OC2(CC1C1(O)C3CC4CC(C3)CC1C4)C1CC3CC(C1)CC2C3", "note": "(centres undefined)", "values": [{"measurement": "GI50", "setting": "DLD-1", "value": "> 100 µM (inactive)"}, {"measurement": "GI50", "setting": "LXFL 529", "value": "> 100 µM (inactive)"}]}
{"smiles": "CC1(C(=O)O)CCC(C(=O)O)C(C)(C)O1", "note": "(centres undefined)", "values": [{"measurement": "GI50", "setting": "BT-549", "value": "> 100 µM (inactive)"}, {"measurement": "GI50", "setting": "MDA-MB-435", "value": "> 100 µM (inactive)"}, {"measurement": "GI50", "setting": "MDA-N", "value": "> 100 µM (inactive)"}]}
{"smiles": "N#C/C(=C\\c1ccncc1)c1csc2ccccc12", "values": [{"measurement": "GI50", "setting": "DLD-1", "value": "28.3 µM (inactive)"}]}
{"smiles": "COC(Cc1cc(C(O)(c2ccc(C(C)(C)C)cc2)c2cc(CC(OC)(c3cc(C(OC)(c4ccc(C(C)(C)C)cc4)c4ccc(C(C)(C)C)cc4)c(C)cc3C)c3cc(C(OC)(c4ccc(C(C)(C)C)cc4)c4ccc(C(C)(C)C)cc4)c(C)cc3C)c(C)cc2C)c(C)cc1C)(c1cc(C(OC)(c2ccc(C(C)(C)C)cc2)c2ccc(C(C)(C)C)cc2)c(C)cc1C)c1cc(C(OC)(c2ccc(C(C)(C)C)cc2)c2ccc(C(C)(C)C)cc2)c(C)cc1C", "values": [{"measurement": "GI50", "setting": "BT-549", "value": "> 75 µM (inactive)"}, {"measurement": "GI50", "setting": "MDA-MB-231", "value": "> 75 µM (inactive)"}, {"measurement": "GI50", "setting": "MDA-MB-435", "value": "> 75 µM (inactive)"}, {"measurement": "GI50", "setting": "MDA-N", "value": "> 75 µM (inactive)"}, {"measurement": "GI50", "setting": "SR", "value": "> 75 µM (inactive)"}]}
{"smiles": "CN/N=C(\\C(=O)Nc1ccc(C)c(C)c1)C(C(=O)OC)c1nc2ccc([N+](=O)[O-])cc2nc1O", "note": "(centres undefined)", "values": [{"measurement": "GI50", "setting": "DLD-1", "value": "> 100 µM (inactive)"}, {"measurement": "GI50", "setting": "LXFL 529", "value": "> 100 µM (inactive)"}, {"measurement": "GI50", "setting": "SR", "value": "> 100 µM (inactive)"}]}
